Experimental data taken from patent US10363239B2, “Method for inhibiting growth of cancer cells” (Pain Therapeutics, Inc., priority 2013, dated 2019).

What was measured:
[1] = tested on: FLNA-bound K-ras and ras-GAP in BxPc3 cells; test: FLNA-bound K-ras and ras-GAP (immunoprecipitation, Western blotting); format: cell-based, human; details: 0.1, 0.5, 1 and 5 nM
Method: (§1) Thus, melanoma, two different pancreatic cancerous cell lines (MiaPaCa2 and BxPc3) and a glioblastoma cell line (U87) were treated with zero (vehicle), 0.1, 0.5, 1 and 5 nM Compound C0105 as previously discussed, and FLNA-bound K-ras and ras-GAP were immunoprecipitated, separated by Western blotting and the blot densities determined as discussed previously.
(§2) To study the effect of Compound C0105 on pS^2152FLNA levels, FLNA linkages to key regulators including protein phosphatases as well as activated Akt (pS^473-, pT^308-Akt), mTOR ([…]) and ERK (pY/pT-ERK) levels, the cancer and normal cells were cultured to approximately 90% confluency and treated with vehicle or varying concentrations of Compound C0105. The cells were washed with warm phosphate-buffered saline (PBS), pH 7.2, dissociated, homogenized by sonication and solubilized using 0.5% NP-40 (nonoxynol 40), 0.2% sodium cholate and 0.5% digitonin for 1 hour at 4° C.
(§3) The cell lysates were diluted 5-fold with immunoprecipitation buffer and immunoprecipitated with anti-FLNA, -Akt, -mTOR and -ERK2 as described previously [Talbot et al., J Clin Inv 122(4):1-23 (2012); Wang et al., J Neurosci 32(29):9773-9784 (2012)]. The levels of FLNA linkages, activated phosphorylated Akt (pS^473 and pT^308), phosphorylated mTOR (pS^2448) and phosphorylated ERK2 (pY/pT) were determined in anti-FLNA, -Akt, -mTOR and -ERK2 immunoprecipitates by Western blotting with appropriate antibodies directed against PTEN, PP2A, K-RAS, ras-GAP (FLNA linkages), pS^473Akt, pT^308Akt, pS^2448mTOR and pY/pT ERK2 (activation of Akt, mTOR and ERK2).

[2] = tested on: FLNA-bound K-ras and ras-GAP in melanoma cells; test: as above; format: cell-based, human; details: 0.1, 0.5, 1 and 5 nM
Method: as §1, §2, §3

[3] = tested on: FLNA-bound K-ras and ras-GAP in MiaPaCa2 cells; test: as above; format: cell-based, human; details: 0.1, 0.5, 1 and 5 nM
Method: as §1, §2, §3

[4] = tested on: FLNA-bound K-ras and ras-GAP in glioblastoma cell line (U87); test: as above; format: cell-based, human; details: 0.1, 0.5, 1 and 5 nM
Method: as §1, §2, §3

[5] = tested on: pS2448mTOR, pS473Akt, pY/pT-ERK2 in melanoma cells; test: Activated (phosphorylated) mTOR, Akt and ERK2 levels (immunoprecipitation, Western blotting); format: cell-based, human; details: 0.1-5 nM; 4 days
Method: FIG. 11A through FIG. 11C illustrate the effect of contact with Compound C0105 on the levels of activated (phosphorylated) mTOR (pS^2448mTOR), Akt (pS^473Akt) and ERK2 (pY/pT-ERK2) in melanoma cells. Cells were treated with vehicle and 0.1-5 nM Compound C0105 for 4 days. Cells were washed, solubilized and the resultant cell lysate was immunoprecipitated with anti-mTOR, -Akt or -ERK2. The levels of pS^2448mTOR, pS^473Akt, pY/pTERK2 in the respective anti-mTOR, -Akt, and -ERK2 immunoprecipitates were determined by Western blotting. The density of protein bands was measured by densitometric scanning. […] N=4. *p<0.01 compared to vehicle (open bars). […]
as §3

[6] = tested on: melanoma cells; test: Glucose deprivation-induced apoptosis markers (cleaved PARP-1, caspase-3) by Western blotting; format: cell-based, human; details: 1 nM; Day 3 and 4
Method: . Cell density was assessed at day 3 and 4. […] . Data are mean±S.E.M. of ratios (FIG. 4B) and % inhibition (FIG. 4C). […] N=5. *p<0.01 compared to Day 0. #p<0.01 compared to vehicle (open bars).
. The cells were washed with PBS, incubated in 0.1% fetal bovine serum (FBS) for 16 hours and incubated in glucose-free 0.1% FBS-containing medium for up to 4 days in the presence of vehicle or 1 nM Compound C0105. The cells in the entire well were collected by centrifugation. […] The protein concentrations were measured by the Bradford method.
The cells were homogenized and the obtained homogenates were centrifuged to remove nucleus and mitochondria. […] The level of apoptotic cell death was determined using Western blotting in 50 μg solubilized cell lysates with antibodies against cleaved PARP-1 (Asp^214) and caspase-3 (Asp^175), both at 1:1000 dilution. […] Bands at the relevant molecular masses of Ki67 and PCNA were quantified by densitometric scan. Membranes were stripped, washed 5× in 0.1% PBST (2 minutes each wash) and the actin content analyzed by immunoblotting using monoclonal anti-actin to illustrate even loading.

[7] = tested on: MiaPaCa2 pancreatic cancer cell implants; test: Xenograft tumor volume study
[8] = tested on: pS2152FLNA, FLNA-associated PTEN and PP2A in pancreatic cancer MiaPaCa2 cells; test: pS2152FLNA and FLNA-associated PTEN and PP2A in anti-FLNA immunoprecipitate (Western blotting); format: cell-based, human; details: 0.1-5 nM; 4 days
Method: The effect of contact with Compound C0105 on the levels of pS^2152FLNA and FLNA-associated phosphatases, PTEN and PP2A subclasses was determined in MiaPaCa2 and HPECs. Cells were contacted with vehicle and 0.1-5 nM Compound C0105 for 4 days. Cells were washed, solubilized and the cell lysate derived was immunoprecipitated with anti-FLNA. The levels of […] and FLNA-associated phosphatases, PTEN and PP2A subclasses in the anti-FLNA immunoprecipitate were determined by Western blotting. The density of protein bands was quantified by densitometric scan. […] Data are expressed as mean±S.E.M. of ratios (FIGS. 27C, 27E and 27G) and percentage inhibition (FIGS. 27D, 27F and 27H). […] N=4. **p<0.05, *p<0.01 compared to vehicle (open bars). […]
as §3

Question: For CN1CCC2(CC1)NCC(=O)N2Cc1ccccc1 [Compound C0105], which “FLNA-bound K-ras” value [1] is on record?
Answer: Its value is “reduces K-ras”.

Question: And the “FLNA-bound Ras-GAP” value [1]?
Answer: The value was “increases Ras-GAP”.

Question: What about the “FLNA-bound K-ras” value [2] of the same molecule?
Answer: The value was “reduces K-ras”.

Question: What about the “FLNA-bound Ras-GAP” value [2] of the same molecule?
Answer: Its value is “increases Ras-GAP”.

Question: What about the “FLNA-bound K-ras” value [3] of the same molecule?
Answer: The value was “reduces K-ras”.

Question: What about the “FLNA-bound Ras-GAP” value [3] of the same molecule?
Answer: The value was “increases Ras-GAP”.

Question: And the “FLNA-bound K-ras” value [4]?
Answer: The value was “reduces K-ras”.

Question: And the “FLNA-bound Ras-GAP” value [4]?
Answer: Its value is “increases Ras-GAP”.

Question: What about the “mTOR, Akt and ERK activation (phosphorylated mTOR, Akt and ERK)” value [5] of the same molecule?
Answer: Its value is “robustly reduces mTOR, Akt and ERK activation”.

Question: And the “Glucose deprivation-induced cell death by cleaved PARP-1 and caspase-3” value [6]?
Answer: The value was “reduces glucose deprivation-induced cell death”.

Question: And the Tumor volume ([7]; 1 mg/kg twice daily orally for 20 days)?
Answer: The Tumor volume was “arrested growth”.

Question: And the Tumor volume ([7]; 10 mg/kg twice daily orally for 20 days)?
Answer: Its Tumor volume is “shrank tumors”.

Question: What about the “Vasculature of tumor masses” value ([7]; 1 or 10 mg/kg twice daily orally) of the same molecule?
Answer: Its value is “visibly reduced the vasculature of tumor masses”.

Question: What about the “FLNA-associated PTEN and PP2A levels” value [8] of the same molecule?
Answer: Its value is “increases FLNA-associated PTEN and PP2A levels”.

Question: And the pS2152FLNA level [8]?
Answer: The pS2152FLNA level was “reduces pS^2152FLNA”.
